Source: patent US9267949B2, “Alkylamino BODIPY dyes as selective fluorescent probes for proteins and mouse embryonic stem cells” (National University of Singapore, priority 2011, dated 2016)

Assay: Quantum yield measurements
Type: physicochemical
Details: referred to Rhodamine B in EtOH, excitation 510 nm, emission integrated 540-800 nm
Summary of the method: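 Integrated fluorescence emission from 540 to 800 nm was referenced to Rhodamine B in EtOH (Φ=0.70) after excitation at 510 nm. Quantum yield was calculated with correction for solvent refractive index and absorbance at the excitation wavelength.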

| SMILES | φ (quantum yield) |
| --- | --- |
| CC1=CC(/C=C/c2ccc(I)cc2)=[N+]2C1=C(CCN)c1cccn1[B-]2(F)F [BDM-237] | 0.35 |
| CCCCOc1ccc(/C=C/c2cc(C)c3n2[B-](F)(F)[N+]2=CC=CC2=C3CCN)cc1 [BDM-46] | 0.53 |
| COc1ccc2ccccc2c1/C=C/C1=[N+]2C(=C(CCN)c3cccn3[B-]2(F)F)C(C)=C1 [BDM-61] | 0.22 |
| COc1ccc(/C=C/C2=[N+]3C(=C(CCN)c4cccn4[B-]3(F)F)C(C)=C2)cc1Cl [BDM-274] | 0.46 |
| Cc1cc(/C=C/c2ccccc2-c2ccccc2)n2c1C(CCN)=C1C=CC=[N+]1[B-]2(F)F [BDM-40] | 0.53 |
| COc1cc(Cl)cc(/C=C/C2=[N+]3C(=C(CCN)c4cccn4[B-]3(F)F)C(C)=C2)c1OC [BDM-282] | 0.19 |
| CC1=CC(/C=C/c2cc(F)ccc2O)=[N+]2C1=C(CCN)c1cccn1[B-]2(F)F [BDM-318] | 0.11 |
| CCOc1ccc(/C=C/c2cc(C)c3n2[B-](F)(F)[N+]2=CC=CC2=C3CCN)cc1OCC [BDM-53] | 0.46 |
| CC1=CC(/C=C/c2ccc(C)o2)=[N+]2C1=C(CCN)c1cccn1[B-]2(F)F [BDM-135] | 0.10 |
| Cc1cc(/C=C/c2ccc(-n3ccnc3)cc2)n2c1C(CCN)=C1C=CC=[N+]1[B-]2(F)F [BDM-8] | 0.34 |
| COC(=O)c1cc(OC)cc(OC)c1/C=C/C1=[N+]2C(=C(CCN)c3cccn3[B-]2(F)F)C(C)=C1 [BDM-401] | 0.85 |
| Cc1ccc(O)c(/C=C/c2cc(C)c3n2[B-](F)(F)[N+]2=CC=CC2=C3CCN)c1 [BDM-33] | 0.14 |
| COc1ccccc1/C=C/C1=[N+]2C(=C(CCN)c3cccn3[B-]2(F)F)C(C)=C1 [BDM-198] | 0.59 |
| CC1=CC(/C=C/c2ccc(Oc3cccc(Cl)c3)cc2)=[N+]2C1=C(CCN)c1cccn1[B-]2(F)F [BDM-290] | 0.36 |
| COc1cc(F)c(/C=C/C2=[N+]3C(=C(CCN)c4cccn4[B-]3(F)F)C(C)=C2)cc1OC [BDM-305] | 0.25 |
| CCCCN(CCCC)c1ccc(/C=C/C2=[N+]3C(=C(CCN)c4cccn4[B-]3(F)F)C(C)=C2)cc1 [BDM-17] | 0.03 |
| Cc1cc(/C=C/c2ccc(C(C)C)cc2)n2c1C(CCN)=C1C=CC=[N+]1[B-]2(F)F [BDM-19] | 0.71 |
| CC1=CC(/C=C/c2csc3ccccc23)=[N+]2C1=C(CCN)c1cccn1[B-]2(F)F [BDM-37] | 0.15 |
| CC1=CC(/C=C/c2ccccc2OCc2ccccc2)=[N+]2C1=C(CCN)c1cccn1[B-]2(F)F [BDM-218] | 0.37 |
| CCc1ccc(/C=C/C2=[N+]3C(=C(CCN)c4cccn4[B-]3(F)F)C(C)=C2)cc1[N+](=O)[O-] [BDM-252] | 0.08 |
| CC1=CC(/C=C/c2cc(OCc3ccccc3)cc(OCc3ccccc3)c2)=[N+]2C1=C(CCN)c1cccn1[B-]2(F)F [BDM-331] | 0.65 |

| SMILES | φ (quantum yield) |
| --- | --- |
| CC1=CC(/C=C/c2ccc(Oc3ccc(C)cc3)cc2)=[N+]2C1=C(CCN)c1cccn1[B-]2(F)F [BDM-300] | 0.44 |
| CC1=CC(/C=C/c2ccccc2)=[N+]2C1=C(CCN)c1cccn1[B-]2(F)F [BDM-27] | 0.39 |
| CCOc1ccc(/C=C/C2=[N+]3C(=C(CCN)c4cccn4[B-]3(F)F)C(C)=C2)cc1OC [BDM-63] | 0.54 |
| CC1=CC(/C=C/c2ccc(OCc3ccccc3)cc2)=[N+]2C1=C(CCN)c1cccn1[B-]2(F)F [BDM-90] | 0.26 |
| COc1ccc(/C=C/c2cc(C)c3n2[B-](F)(F)[N+]2=CC=CC2=C3CCN)c2ccccc12 [BDM-32] | 0.25 |
| CC1=CC(/C=C/c2cccc(OC(F)(F)C(F)F)c2)=[N+]2C1=C(CCN)c1cccn1[B-]2(F)F [BDM-345] | 0.22 |
| CC1=CC(/C=C/c2ccc(C)c(Cl)c2)=[N+]2C1=C(CCN)c1cccn1[B-]2(F)F [BDM-289] | 0.26 |
| COc1ccc(/C=C/C2=[N+]3C(=C(CCN)c4cccn4[B-]3(F)F)C(C)=C2)cc1[N+](=O)[O-] [BDM-350] | 0.14 |
| COc1ccc(/C=C/C2=[N+]3C(=C(CCN)c4cccn4[B-]3(F)F)C(C)=C2)c(C)c1C [BDM-310] | 0.42 |
| CC1=CC(/C=C/c2ccc(-c3ccc(Cl)cc3)o2)=[N+]2C1=C(CCN)c1cccn1[B-]2(F)F [BDM-371] | 0.03 |
| CC1=CC(/C=C/c2c(Cl)ccc(C)c2F)=[N+]2C1=C(CCN)c1cccn1[B-]2(F)F [BDM-246] | 0.17 |
| COc1ccc(/C=C/c2cc(C)c3n2[B-](F)(F)[N+]2=CC=CC2=C3CCN)cc1OCc1ccccc1 [BDM-7] | 0.37 |
| CC1=CC(/C=C/c2ccc(N(C)C)c3ccccc23)=[N+]2C1=C(CCN)c1cccn1[B-]2(F)F [BDM-377] | 0.04 |
| CC1=CC(/C=C/c2ccc(C(C)(C)C)cc2)=[N+]2C1=C(CCN)c1cccn1[B-]2(F)F [BDM-177] | 0.78 |
| COc1ccc(/C=C/C2=[N+]3C(=C(CCN)c4cccn4[B-]3(F)F)C(C)=C2)cc1OC [BDM-62] | 0.43 |
| CC1=CC(/C=C/c2ccc(C)c(F)c2)=[N+]2C1=C(CCN)c1cccn1[B-]2(F)F [BDM-249] | 0.24 |
| COc1ccc2[nH]cc(/C=C/C3=[N+]4C(=C(CCN)c5cccn5[B-]4(F)F)C(C)=C3)c2c1 [BDM-93] | 0.06 |
| COc1cc(Br)cc(/C=C/C2=[N+]3C(=C(CCN)c4cccn4[B-]3(F)F)C(C)=C2)c1OC [BDM-228] | 0.24 |
| CCCOc1ccc(/C=C/C2=[N+]3C(=C(CCN)c4cccn4[B-]3(F)F)C(C)=C2)cc1 [BDM-140] | 0.57 |
| CC1=CC(/C=C/c2ccccc2C)=[N+]2C1=C(CCN)c1cccn1[B-]2(F)F [BDM-143] | 0.42 |

Assay: Spectroscopic properties of the BDM library (absorbance and emission maxima)
Type: physicochemical
Details: not given

| SMILES | λmax (ABS) [nm] | λmax (EM) [nm] |
| --- | --- | --- |
| CC1=CC(/C=C/c2ccc(I)cc2)=[N+]2C1=C(CCN)c1cccn1[B-]2(F)F [BDM-237] | 558 | 572 |
| CCCCOc1ccc(/C=C/c2cc(C)c3n2[B-](F)(F)[N+]2=CC=CC2=C3CCN)cc1 [BDM-46] | 564 | 583 |
| COc1ccc2ccccc2c1/C=C/C1=[N+]2C(=C(CCN)c3cccn3[B-]2(F)F)C(C)=C1 [BDM-61] | 576 | 610 |
| COc1ccc(/C=C/C2=[N+]3C(=C(CCN)c4cccn4[B-]3(F)F)C(C)=C2)cc1Cl [BDM-274] | 562 | 577 |
| Cc1cc(/C=C/c2ccccc2-c2ccccc2)n2c1C(CCN)=C1C=CC=[N+]1[B-]2(F)F [BDM-40] | 554 | 567 |
| COc1cc(Cl)cc(/C=C/C2=[N+]3C(=C(CCN)c4cccn4[B-]3(F)F)C(C)=C2)c1OC [BDM-282] | 558 | 565 |
| CC1=CC(/C=C/c2cc(F)ccc2O)=[N+]2C1=C(CCN)c1cccn1[B-]2(F)F [BDM-318] | 563 | 576 |
| CCOc1ccc(/C=C/c2cc(C)c3n2[B-](F)(F)[N+]2=CC=CC2=C3CCN)cc1OCC [BDM-53] | 568 | 600 |
| CC1=CC(/C=C/c2ccc(C)o2)=[N+]2C1=C(CCN)c1cccn1[B-]2(F)F [BDM-135] | 577 | 601 |
| Cc1cc(/C=C/c2ccc(-n3ccnc3)cc2)n2c1C(CCN)=C1C=CC=[N+]1[B-]2(F)F [BDM-8] | 561 | 575 |
| COC(=O)c1cc(OC)cc(OC)c1/C=C/C1=[N+]2C(=C(CCN)c3cccn3[B-]2(F)F)C(C)=C1 [BDM-401] | 565 | 590 |
| Cc1ccc(O)c(/C=C/c2cc(C)c3n2[B-](F)(F)[N+]2=CC=CC2=C3CCN)c1 [BDM-33] | 564 | 580 |
| COc1ccccc1/C=C/C1=[N+]2C(=C(CCN)c3cccn3[B-]2(F)F)C(C)=C1 [BDM-198] | 559 | 574 |
| CC1=CC(/C=C/c2ccc(Oc3cccc(Cl)c3)cc2)=[N+]2C1=C(CCN)c1cccn1[B-]2(F)F [BDM-290] | 558 | 574 |
| COc1cc(F)c(/C=C/C2=[N+]3C(=C(CCN)c4cccn4[B-]3(F)F)C(C)=C2)cc1OC [BDM-305] | 567 | 587 |
| CCCCN(CCCC)c1ccc(/C=C/C2=[N+]3C(=C(CCN)c4cccn4[B-]3(F)F)C(C)=C2)cc1 [BDM-17] | 622 | 695 |
| Cc1cc(/C=C/c2ccc(C(C)C)cc2)n2c1C(CCN)=C1C=CC=[N+]1[B-]2(F)F [BDM-19] | 555 | 569 |
| CC1=CC(/C=C/c2csc3ccccc23)=[N+]2C1=C(CCN)c1cccn1[B-]2(F)F [BDM-37] | 566 | 588 |
| CC1=CC(/C=C/c2ccccc2OCc2ccccc2)=[N+]2C1=C(CCN)c1cccn1[B-]2(F)F [BDM-218] | 559 | 574 |
| CCc1ccc(/C=C/C2=[N+]3C(=C(CCN)c4cccn4[B-]3(F)F)C(C)=C2)cc1[N+](=O)[O-] [BDM-252] | 556 | 569 |
| CC1=CC(/C=C/c2cc(OCc3ccccc3)cc(OCc3ccccc3)c2)=[N+]2C1=C(CCN)c1cccn1[B-]2(F)F [BDM-331] | 554 | 566 |

| SMILES | λmax (ABS) [nm] | λmax (EM) [nm] |
| --- | --- | --- |
| CC1=CC(/C=C/c2ccc(Oc3ccc(C)cc3)cc2)=[N+]2C1=C(CCN)c1cccn1[B-]2(F)F [BDM-300] | 562 | 579 |
| CC1=CC(/C=C/c2ccccc2)=[N+]2C1=C(CCN)c1cccn1[B-]2(F)F [BDM-27] | 553 | 566 |
| CCOc1ccc(/C=C/C2=[N+]3C(=C(CCN)c4cccn4[B-]3(F)F)C(C)=C2)cc1OC [BDM-63] | 568 | 597 |
| CC1=CC(/C=C/c2ccc(OCc3ccccc3)cc2)=[N+]2C1=C(CCN)c1cccn1[B-]2(F)F [BDM-90] | 565 | 582 |
| COc1ccc(/C=C/c2cc(C)c3n2[B-](F)(F)[N+]2=CC=CC2=C3CCN)c2ccccc12 [BDM-32] | 576 | 624 |
| CC1=CC(/C=C/c2cccc(OC(F)(F)C(F)F)c2)=[N+]2C1=C(CCN)c1cccn1[B-]2(F)F [BDM-345] | 551 | 564 |
| CC1=CC(/C=C/c2ccc(C)c(Cl)c2)=[N+]2C1=C(CCN)c1cccn1[B-]2(F)F [BDM-289] | 559 | 570 |
| COc1ccc(/C=C/C2=[N+]3C(=C(CCN)c4cccn4[B-]3(F)F)C(C)=C2)cc1[N+](=O)[O-] [BDM-350] | 556 | 571 |
| COc1ccc(/C=C/C2=[N+]3C(=C(CCN)c4cccn4[B-]3(F)F)C(C)=C2)c(C)c1C [BDM-310] | 566 | 600 |
| CC1=CC(/C=C/c2ccc(-c3ccc(Cl)cc3)o2)=[N+]2C1=C(CCN)c1cccn1[B-]2(F)F [BDM-371] | 590 | 630 |
| CC1=CC(/C=C/c2c(Cl)ccc(C)c2F)=[N+]2C1=C(CCN)c1cccn1[B-]2(F)F [BDM-246] | 554 | 566 |
| COc1ccc(/C=C/c2cc(C)c3n2[B-](F)(F)[N+]2=CC=CC2=C3CCN)cc1OCc1ccccc1 [BDM-7] | 566 | 591 |
| CC1=CC(/C=C/c2ccc(N(C)C)c3ccccc23)=[N+]2C1=C(CCN)c1cccn1[B-]2(F)F [BDM-377] | 586 |  |
| CC1=CC(/C=C/c2ccc(C(C)(C)C)cc2)=[N+]2C1=C(CCN)c1cccn1[B-]2(F)F [BDM-177] | 556 | 567 |
| COc1ccc(/C=C/C2=[N+]3C(=C(CCN)c4cccn4[B-]3(F)F)C(C)=C2)cc1OC [BDM-62] | 567 | 594 |
| CC1=CC(/C=C/c2ccc(C)c(F)c2)=[N+]2C1=C(CCN)c1cccn1[B-]2(F)F [BDM-249] | 557 | 568 |
| COc1ccc2[nH]cc(/C=C/C3=[N+]4C(=C(CCN)c5cccn5[B-]4(F)F)C(C)=C3)c2c1 [BDM-93] | 592 | 653 |
| COc1cc(Br)cc(/C=C/C2=[N+]3C(=C(CCN)c4cccn4[B-]3(F)F)C(C)=C2)c1OC [BDM-228] | 557 | 567 |
| CCCOc1ccc(/C=C/C2=[N+]3C(=C(CCN)c4cccn4[B-]3(F)F)C(C)=C2)cc1 [BDM-140] | 564 | 585 |
| CC1=CC(/C=C/c2ccccc2C)=[N+]2C1=C(CCN)c1cccn1[B-]2(F)F [BDM-143] | 554 | 566 |
